In the assay the target is T1, human full-length recombinant PKC βII (Homo sapiens, UniProt P05771).
T1 construct: Active human full-length recombinant PKC βII; purchased Invitrogen GmbH, Darmstadt, Germany
T1 sequence (P05771 1-673 isoform P05771-2): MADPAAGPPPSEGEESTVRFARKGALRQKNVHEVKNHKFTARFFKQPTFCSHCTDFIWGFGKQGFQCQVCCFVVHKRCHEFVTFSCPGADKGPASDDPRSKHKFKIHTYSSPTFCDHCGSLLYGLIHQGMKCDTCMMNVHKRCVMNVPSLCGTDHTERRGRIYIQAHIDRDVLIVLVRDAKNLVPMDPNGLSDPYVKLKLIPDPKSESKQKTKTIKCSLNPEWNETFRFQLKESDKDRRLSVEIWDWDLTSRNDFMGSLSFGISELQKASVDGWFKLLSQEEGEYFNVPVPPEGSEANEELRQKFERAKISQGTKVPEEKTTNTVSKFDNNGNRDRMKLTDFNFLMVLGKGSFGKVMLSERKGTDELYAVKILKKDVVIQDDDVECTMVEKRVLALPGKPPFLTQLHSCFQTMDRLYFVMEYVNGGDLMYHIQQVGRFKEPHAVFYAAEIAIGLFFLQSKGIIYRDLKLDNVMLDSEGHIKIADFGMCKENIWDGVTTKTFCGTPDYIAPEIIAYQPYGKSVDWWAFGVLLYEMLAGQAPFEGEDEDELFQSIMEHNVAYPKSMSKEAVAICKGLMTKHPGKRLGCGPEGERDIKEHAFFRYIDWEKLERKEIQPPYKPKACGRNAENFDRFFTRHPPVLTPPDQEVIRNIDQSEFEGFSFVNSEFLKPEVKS
Description: Determination of PKC βII inhibition (Caliper mobility-shift kinase assay, phosphorylation of fluorescein peptide substrate). The class given is biochemical. As to conditions: final compound concentration 1.14 µM (±0.15 µM); 60 min incubation at 32 °C. The procedure:
Determination of PKC βII inhibition
PKC βII inhibition was determined according to the following protocol:
Active human full-length recombinant PKC βII and the peptide substrate, Fluorescein-RFARKGSLRQKNV, were purchased from Invitrogen GmbH, Darmstadt, Germany. Adenosine-5'-triphosphate (ATP), bovine serum albumine (BSA), dimethylsulphoxide (DMSO), 4-(2-hydroxyethyl)piperazine-1-ethanesulfonic acid (Hepes), Triton X-100, 1,2-Dioleoyl-sn-glycerol (DAG), L-α-Phosphatidyl-L-serine (PS), calcium chloride (CaCl2), and Pluronic F-68 were purchased from Sigma-Aldrich, Munich, Germany. Magnesium chloride, 1 M sodium hydroxide solution, 1M hydrochloric acid solution and EDTA were obtained from Merck Biosciences, Darmstadt, Germany.
Test compounds were diluted to three times the test concentration in buffer 1 (30 mM Hepes-NaOH, pH 7.4, 0.01 % Pluronic F-68 and 3 % (v/v) DMSO). The PKC βII enzyme was diluted to a concentration of 30 ng/ml in buffer 2 (30 mM Hepes-NaOH, pH 7.4, 15 mM MgCl2,150 µM CaCl2, 150 µg/ml PS, 60 µg/ml DAG, and 0.045 % (w/v) Triton X-100). The peptide substrate and ATP were diluted to concentrations of 3 µM and 120 µM, respectively, in buffer 2. Two µl of the compound solution were mixed with 2 µl of the diluted enzyme in a 384-well small volume microtiter plate (Greiner, Bio-One, Frickenhausen, Germany), and the kinase reaction was initiated by addition of 2 µl of the solution containing peptide substrate and ATP. After 60 min incubation at 32 °C, the reaction was stopped by addition of 20 µl of a solution containing 130 mM Hepes-NaOH, pH 7.4, 0.0195 % (v/v) Brij-35, 6.5 mM EDTA, 0.13 % chip coating reagent 3 (Caliper Lifescience Inc, Hopkinton, MA) and 6.5 % (v/v) DMSO. Phosphorylation of the substrate peptide was then detected on a Caliper 3000 instrument essentially as described by Pommereau et al (J. Biomol. Screening 2004, 9(5), 409-416). Separation conditions were as follows: Pressure -0.8 psi, upstream voltage - 3000 V, downstream voltage -800 V. Positive controls (buffer 1 instead of compound) and negative controls (buffer 1 instead of compound and buffer 2 instead of kinase solution) were run in parallel on each plate. Fractional turnover (R) was determined as the height of the peak of the phosphorylated peptide product divided by the sum of the unphosphorylated substrate and phosphorylated product peak heights. Percent-inhibition values for the test compounds were determined using the formula % Inhibition = 100*(1-(Rcompound-Rnegative control)/(Rpositive control-Rnegative control). [formula]
In the following table % inhibition values observed with example compounds at a final concentration of 1.14 µM (±0.15 µM) are listed: […]
Take `O=C(c1cc(-c2ccc(O)cc2)nc2[nH]nc(/C=C/c3cccc(C(F)(F)F)c3)c12)N1CCNCC1` [Example 46, {6-(4-Hydroxy-phenyl)-3-[(E)-2-(3-trifluoromethylphenyl)-vinyl]-1 H-pyrazolo[3,4-b]pyridin-4-yl}-piperazin-1-yl-methanone]: the inhibition – broadly, the change of the read-out against control, counted positive when it falls – at 1.14 µM is 97%.
`Cc1cc(/C=C/c2n[nH]c3nc(-c4ccc(O)cc4)cc(C(=O)N4CCNCC4)c23)ccc1O` [Example 47, [3-[(E)-2-(4-Hydroxy-3-methyl-phenyl)-vinyl]-6-(4-hydroxy-phenyl)-1H-pyrazolo[3,4-b]pyridin-4-yl]-piperazin-1-yl-methanone]: the inhibition at 1.14 µM is 98%.
On to `O=C(c1cc(-c2ccc(O)cc2)nc2[nH]nc(/C=C/c3cccc(Cl)c3)c12)N1CCNCC1` [Example 48, [3-[(E)-2-(3-Chloro-phenyl)-vinyl]-6-(4-hydroxy-phenyl)-1H-pyrazolo[3,4-b]pyridin-4-yl]-piperazin-1-yl-methanone], for which the inhibition at 1.14 µM worked out at 97%.
Under `Cc1ccc(/C=C/c2n[nH]c3nc(-c4ccc(O)cc4)cc(C(=O)N4CCNCC4)c23)c(C)c1` [Example 49, [3-[(E)-2-(2,4-Dimethylphenyl)-vinyl]-6-(4-hydroxy-phenyl)-1H-pyrazolo[3,4-b]pyridin-4-yl]-piperazin-1-yl-methanone] stands 88%; under `Cc1ccc(C)c(/C=C/c2n[nH]c3nc(-c4ccc(O)cc4)cc(C(=O)N4CCNCC4)c23)c1` [Example 50, [3-[(E)-2-(2,5-Dimethylphenyl)-vinyl]-6-(4-hydroxy-phenyl)-1H-pyrazolo[3,4-b]pyridin-4-yl]-piperazin-1-yl-methanone], 92%.
The value for `CC(C)c1ccc(/C=C/c2n[nH]c3nc(-c4ccc(O)cc4)cc(C(=O)N4CCNCC4)c23)cc1` [Example 51, {6-(4-Hydroxy-phenyl)-3-[(E)-2-(4-isopropyl-phenyl)-vinyl]-1H-pyrazolo[3,4-b]pyridin-4-yl}-piperazin-1-yl-methanone] was 94%; that for `O=C(c1cc(-c2ccc(O)cc2)nc2[nH]nc(/C=C/c3ccc(F)cc3Cl)c12)N1CCNCC1` [Example 52, [3-[(E)-2-(2-Chloro-4-fluorophenyl)-vinyl]-6-(4-hydroxy-phenyl)-1H-pyrazolo[3,4-b]pyridin-4-yl]-piperazin-1-yl-methanone] was 91%; that for `CCc1ccc(/C=C/c2n[nH]c3nc(-c4ccc(O)cc4)cc(C(=O)N4CCNCC4)c23)cc1` [Example 53, [3-[(E)-2-(4-Ethyl-phenyl)-vinyl]-6-(4-hydroxy-phenyl)-1H-pyrazolo[3,4-b]pyridin-4-yl]-piperazin-1-yl-methanone] was 95%.
The value for `CC(C)(C)c1ccc(/C=C/c2n[nH]c3nc(-c4ccc(O)cc4)cc(C(=O)N4CCNCC4)c23)cc1` [Example 54, [3-[(E)-2-(4-tert-Butyl-phenyl)-vinyl]-6-(4-hydroxy-phenyl)-1H-pyrazolo[3,4-b]pyridin-4-yl]-piperazin-1-yl-methanone] was 95%; that for `Cc1ccc(/C=C/c2n[nH]c3nc(-c4ccc(O)cc4)cc(C(=O)N4CCNCC4)c23)cc1F` [Example 55, [3-[(E)-2-(3-Fluoro-4-methyl-phenyl)-vinyl]-6-(4-hydroxy-phenyl)-1H-pyrazolo[3,4-b]pyridin-4-yl]-piperazin-1-yl-methanone] was 76%.
`COc1cccc(/C=C/c2n[nH]c3nc(-c4ccc(O)cc4)cc(C(=O)N4CCNCC4)c23)c1` [Example 56, {6-(4-Hydroxy-phenyl)-3-[(E)-2-(3-methoxyphenyl)-vinyl]-1H-pyrazolo[3,4-b]pyridin-4-yl}-piperazin-1-yl-methanone]: the inhibition at 1.14 µM was 100%.
On to `CC(=O)c1ccc(/C=C/c2n[nH]c3nc(-c4ccc(O)cc4)cc(C(=O)N4CCNCC4)c23)cc1` [Example 57, 1-(4-{(E)-2-[6-(4-Hydroxy-phenyl)-4-(piperazine-1-carbonyl)-1H-pyrazolo[3,4-b]pyridin-3-yl]-vinyl}-phenyl)-ethanone], for which the inhibition at 1.14 µM worked out at 98%.
The value for `O=C(c1cc(-c2ccc(O)cc2)nc2[nH]nc(/C=C/c3ccc(OC(F)(F)F)cc3)c12)N1CCNCC1` [Example 58, {6-(4-Hydroxyphenyl)-3-[(E)-2-(4-trifluorome-thoxy-phenyl)-vinyl]-1H-pyrazo-lo[3,4-b]pyridin-4-yl}-piperazin-1-yl-methanone] was 89%.
As for `O=C(c1cc(-c2ccc(O)cc2)nc2[nH]nc(/C=C/c3ccc(F)c(F)c3)c12)N1CCNCC1` [Example 59, [3-[(E)-2-(3,4-Difluoro-phenyl)-vinyl]-6-(4-hydroxy-phenyl)-1H-pyrazolo[3,4-b]pyridin-4-yl]-piperazin-1-yl-methanone], the inhibition at 1.14 µM is 97%.
For `COc1ccccc1/C=C/c1n[nH]c2nc(-c3ccc(O)cc3)cc(C(=O)N3CCNCC3)c12` [Example 60, {6-(4-hydroxy-phenyl)-3-[(E)-2-(2-methoxy-phenyl)-vinyl]-1H-pyrazolo[3,4-b]pyridin-4-yl}-piperazin-1-yl-methanone], the inhibition at 1.14 µM came to 98%.
Under `Cc1cc(F)ccc1/C=C/c1n[nH]c2nc(-c3ccc(O)cc3)cc(C(=O)N3CCNCC3)c12` [Example 61, [3-[(E)-2-(4-Fluoro-2-methyl-phenyl)-vinyl]-6-(4-hydroxy-phenyl)-1H-pyrazolo[3,4-b]pyridin-4-yl]-piperazin-1-yl-methanone] stands 86%; under `COc1cc(/C=C/c2n[nH]c3nc(-c4ccc(O)cc4)cc(C(=O)N4CCNCC4)c23)cc(OC)c1OC` [Example 62, {6-(4-hydroxy-phenyl)-3-[(E)-2-(3,4,5-trimethoxy-phenyl)-vinyl]-1H-pyrazolo[3,4-b]pyridin-4-yl}-piperazin-1-yl-methanone], 98%.
Under `Cc1ccc(/C=C/c2n[nH]c3nc(-c4ccc(O)cc4)cc(C(=O)N4CCNCC4)c23)c(F)c1` [Example 63, [3-[(E)-2-(2-Fluoro-4-methyl-phenyl)-vinyl]-6-(4-hydroxy-phenyl)-1H-pyrazolo[3,4-b]pyridin-4-yl]-piperazin-1-yl-methanone] stands 97%; under `O=C(c1cc(-c2ccc(O)cc2)nc2[nH]nc(/C=C/c3ccc4c(c3)CCO4)c12)N1CCNCC1` [Example 64, [3-[(E)-2-(2,3-Dihydrobenzofuran-5-yl)-vinyl]-6-(4-hydroxy-phenyl)-1H-pyrazolo[3,4-b]pyridin-4-yl]-piperazin-1-yl-methanone], 99%; under `O=C(c1cc(-c2ccc(O)cc2)nc2[nH]nc(/C=C/c3ccc4c(c3)OCO4)c12)N1CCNCC1` [Example 65, [3-((E)-2-Benzo[1,3]dioxol-5-yl-vinyl)-6-(4-hydroxy-phenyl)-1H-pyrazolo[3,4-b]pyridin-4-yl]-piperazin-1-yl-methanone], 97%.
Consider `CN(C)C(=O)c1ccc(/C=C/c2n[nH]c3nc(-c4ccc(O)cc4)cc(C(=O)N4CCNCC4)c23)cc1` [Example 66, 4-{(E)-2-[6-(4-Hydroxy-phenyl)-4-(piperazine-1-carbonyl)-1H-pyrazolo[3,4-b]pyridin-3-yl]-vinyl}-N,N-dimethyl-benzamide], for which the inhibition at 1.14 µM is 99%.
Under `CCOc1ccc(/C=C/c2n[nH]c3nc(-c4ccc(O)cc4)cc(C(=O)N4CCNCC4)c23)cc1` [Example 67, [3-[(E)-2-(4-Ethoxy-phenyl)-vinyl]-6-(4-hydroxy-phenyl)-1 H-pyrazolo[3,4-b]pyridin-4-yl]-piperazin-1-yl-methanone] stands 99%; under `O=C(c1cc(-c2ccc(O)cc2)nc2[nH]nc(/C=C/c3ccccc3C(F)(F)F)c12)N1CCNCC1` [Example 68, {6-(4-Hydroxy-phenyl)-3-[(E)-2-(2-trifluoromethyl-phenyl)-vinyl]-1H-pyrazolo[3,4-b]pyridin-4-yl}-piperazin-1-yl-methanone], 60%.
On to `Cc1ccccc1/C=C/c1n[nH]c2nc(-c3ccc(O)cc3)cc(C(=O)N3CCNCC3)c12` [Example 69, [6-(4-Hydroxy-phenyl)-3-((E)-2-o-tolyl-vinyl)-1H-pyrazolo[3,4-b]pyridin-4-yl]-piperazin-1-yl-methanone], for which the inhibition at 1.14 µM is 94%.

Values taken from EP2567959B1, “6-(4-HYDROXY-PHENYL)-3-STYRYL-1H-PYRAZOLO[3,4-B]PYRIDINE-4-CARBOXYLIC ACID AMIDE DERIVATIVES AS KINASE INHIBITORS” (SANOFI, priority 2011, dated 2013).
